{"source": "patent US20250108213A1", "about": "“COMPOSITIONS AND METHODS FOR ENHANCING THE EFFECT OF PLATINUM-BASED SYSTEMIC THERAPY” (NOVOCURE GMBH, priority 2023, published 2025)", "key": {"[1]": {"system": "γH2AX foci in cell nuclei", "assay": "DNA damage examination by fluorescence microscopy", "assay_type": "cell-based, human", "settings": "treatment alone, all cell lines (A2780, OVCAR-3, A2780cis), relative to control", "method": "For DNA damage and cell cycle examination, the following drug concentrations were selected: For A2780—6 μM carboplatin, 1 μM olaparib, and 0.5 μM niraparib; For OVCAR-3-16 μM carboplatin, 0.5 μM olaparib, and 0.8 μM niraparib; For A2780cis—36 μM carboplatin, 10 μM olaparib, and 1.5 μM niraparib. Treated cells were fixed with 4% paraformaldehyde for 10 min, permeabilized for 20 min with 0.5% Triton X-100 in PBS, and blocked with donkey serum (PBS with 0.3% Triton X-100 and donkey serum 1:100). Cells were incubated at 4° C. overnight with anti-γH2AX antibody (Cell Signaling, Danvers, MA, USA; #9718, 1:400), followed by incubation at room temperature for 1 hr with Alexa Flour 488-conjugated secondary antibody (Jackson Immunoresearch, Cambridge, UK; #711-545-152, 1:500) and […] 4′,6-diamidino-2-phenylindole (DAPI; Sigma Aldrich, Rehovot, Israel). LSM 700 laser scanning confocal system (Zeiss, Gottingen, Germany) was utilized to obtain images, and the mean number of foci per nucleus was determined using the FIJI software with the BioVoxxel plugin."}, "[2]": {"system": "orthotopic ID8-fLuc (HRP) ovarian cancer tumors", "assay": "Tumor load by bioluminescent imaging in ovarian cancer bearing mice", "assay_type": "in vivo", "method": "Murine experiments were approved by the KU Leuven ethical committee (P082/2021). NIH guidelines for the Care and Use of Laboratory Animals were followed along with the 2010/62/EU directive and the ARRIVE (Animal Research: Reporting of In Vivo Research: Reporting of In Vivo Experiments) guidelines. Syngeneic ID8-fluc cells were harvested using 0.05% Trypsin-EDTA and inoculated (5×10^6 cells in 100 μL DPBS) intraperitoneally in female C57BL/6 mice (six- to eight-week-old, obtained from Envigo (Horst, The Netherlands)), leading to the development of a stage III-IV ovarian cancer model.\nSeven days post inoculation, treatment was initiated. Mice were divided into four groups receiving either, sham-heat and vehicle (n=8), sham-heat and olaparib (n=8), TTFields and vehicle (n=7) or TTFields and olaparib (n=11). TTFields treatment (200 kHz) was administered continuously using the in vivo system (Novocure, Israel) by applying electrode arrays to the shaven abdomen of the mice as previously described. […]\nTumor load was observed through bioluminescent imaging analysis before (day 5) and after (day 35) treatment administration. […] Ten minutes post injection, photon flux was measured using the IVIS-spectrum preclinical In Vivo Imaging System (Perkin-Elmer, USA). Normalized photon flux was calculated by subtracting the photon flux before treatment from the paired photon flux after treatment per mouse."}, "A2780cis cells": {"system": "A2780cis cells", "assay": "Apoptosis, Annexin V/7-AAD staining, flow cytometer", "assay_type": "cell-based, human", "settings": "TTFields applied with drug", "method": "(§1) Apoptosis was also examined. Treated cells were double-stained with FITC-conjugated annexin V (AnnV) and 7-aminoactinomycin D (7AAD), and data acquisition was performed with a flow cytometer.\nTreated cells were double-stained with FITC-conjugated annexin V (AnnV) and 7-aminoactinomycin D (7AAD), and data acquisition was performed with a flow cytometer.\n(§2) Treated cells were stained with FITC-conjugated Annexin V (AnnV) and 7-Aminoactinomycin D (7-AAD) using a commercial kit (BioLegend, San Diego, CA, USA), according to the manufacturer's instruction. Data acquisition and analysis were done on the Cytek Northern Lights flow cytometer"}, "A2780 cells": {"system": "A2780 cells", "assay": "Apoptosis, Annexin V/7-AAD staining, flow cytometer", "assay_type": "cell-based, human", "settings": "TTFields applied with drug", "method": "Apoptosis: Treated cells were double-stained with FITC-conjugated annexin V (AnnV) and 7-aminoactinomycin D (7AAD), and data acquisition was performed with a flow cytometer.\nas §1, §2"}, "G2/M cell cycle arrest": {"system": "G2/M cell cycle arrest", "assay": "Cell cycle analysis (7-AAD, flow cytometer)", "assay_type": "cell-based, human", "method": "For DNA damage and cell cycle examination, the following drug concentrations were selected: For A2780—6 μM carboplatin, 1 μM olaparib, and 0.5 μM niraparib; For OVCAR-3-16 μM carboplatin, 0.5 μM olaparib, and 0.8 μM niraparib; For A2780cis—36 μM carboplatin, 10 μM olaparib, and 1.5 μM niraparib. Treated cells were fixed with 70% ice-cold ethanol for 30 min, pelleted, washed, and stained for 30 min at 37° C. in phosphate buffered saline (PBS) containing 1% FBS 5 μg/ml 7-AAD (BioLegend), 200 μg/ml RNase, 1 mM EDTA and 0.1% Triton X-100. Data acquisition (at 665/30 nm) and analysis were done on the Cytek Northern Lights flow cytometer and the FlowJo 10.8.1 software (BD Biosciences), respectively."}}, "note": "“Also recorded” adds a separate entry of the source.", "data": [{"molecule": "O=C(c1cc(Cc2n[nH]c(=O)c3ccccc23)ccc1F)N1CCN(C(=O)C2CC2)CC1", "note": "[olaparib]", "values": [{"measurement": "levels of γH2AX foci, monotherapy", "setting": "[1]", "result": "mild elevation"}, {"measurement": "tumor volumes lower compared to controls and to olaparib only treated mice", "setting": "[2]; TTFields (200 kHz) plus olaparib 50 mg/kg/day oral gavage, after 4 weeks, p=0.0183 vs controls, p=0.0066 vs olaparib only", "result": "about 80%"}, {"measurement": "tumor growth relative to olaparib alone and to control, TTFields and olaparib together", "setting": "[2]; TTFields plus olaparib 50 mg/kg/day", "result": "significant reduction"}, {"measurement": "effect of TTFields on the apoptotic effect / apoptotic cell fraction", "setting": "A2780cis cells", "result": "elevation"}, {"measurement": "effect of TTFields on the apoptotic effect / apoptotic cell fraction", "setting": "A2780 cells", "result": "enhanced; also recorded: elevation"}, {"measurement": "cell cycle arrest, drug alone", "setting": "G2/M cell cycle arrest", "result": "induced G2/M arrest"}]}]}
